This assay concerns the target T1, BRM (Homo sapiens, UniProt P51531).
T1 construct: In-Cell Western Screen of BRM Degradation in SW1573 Cells; endogenous in cells; host or cells: SW1573
In words: In-cell Western screen of BRM degradation in SW1573 cells (Dmax and DC50). It is filed as cell-based. The gist of the method:
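SW1573, overnight cpd exposure (18-20 h), 0.1% DMSO final. PFA fix, 0.5% Triton permeabilization, block; IR secondaries at 800/680 nm. Odyssey read → Dmax, DC50.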

Setting [1] is: BRM degradation, SW1573 cells, read-out: DC50.
[2] abbreviates: BRM degradation, SW1573 cells, Table 2D, read-out: *DC50.
[3] abbreviates: BRM degradation, SW1573 cells, when tested at the top concentration of between 0.3 and 10 μM, read-out: Dmax (%) (% degraded).
[4] abbreviates: SW1573, % degraded, when tested at the top concentration of between 0.3 and 10 μM, read-out: BRM Dmax (%).
Where [5] appears, read: target protein degradation, read-out: BRM DC50.

Structures are written as SMILES. Read-outs that look alike come from different tables or passages of the source.

T1 sequence (P51531 whole entry): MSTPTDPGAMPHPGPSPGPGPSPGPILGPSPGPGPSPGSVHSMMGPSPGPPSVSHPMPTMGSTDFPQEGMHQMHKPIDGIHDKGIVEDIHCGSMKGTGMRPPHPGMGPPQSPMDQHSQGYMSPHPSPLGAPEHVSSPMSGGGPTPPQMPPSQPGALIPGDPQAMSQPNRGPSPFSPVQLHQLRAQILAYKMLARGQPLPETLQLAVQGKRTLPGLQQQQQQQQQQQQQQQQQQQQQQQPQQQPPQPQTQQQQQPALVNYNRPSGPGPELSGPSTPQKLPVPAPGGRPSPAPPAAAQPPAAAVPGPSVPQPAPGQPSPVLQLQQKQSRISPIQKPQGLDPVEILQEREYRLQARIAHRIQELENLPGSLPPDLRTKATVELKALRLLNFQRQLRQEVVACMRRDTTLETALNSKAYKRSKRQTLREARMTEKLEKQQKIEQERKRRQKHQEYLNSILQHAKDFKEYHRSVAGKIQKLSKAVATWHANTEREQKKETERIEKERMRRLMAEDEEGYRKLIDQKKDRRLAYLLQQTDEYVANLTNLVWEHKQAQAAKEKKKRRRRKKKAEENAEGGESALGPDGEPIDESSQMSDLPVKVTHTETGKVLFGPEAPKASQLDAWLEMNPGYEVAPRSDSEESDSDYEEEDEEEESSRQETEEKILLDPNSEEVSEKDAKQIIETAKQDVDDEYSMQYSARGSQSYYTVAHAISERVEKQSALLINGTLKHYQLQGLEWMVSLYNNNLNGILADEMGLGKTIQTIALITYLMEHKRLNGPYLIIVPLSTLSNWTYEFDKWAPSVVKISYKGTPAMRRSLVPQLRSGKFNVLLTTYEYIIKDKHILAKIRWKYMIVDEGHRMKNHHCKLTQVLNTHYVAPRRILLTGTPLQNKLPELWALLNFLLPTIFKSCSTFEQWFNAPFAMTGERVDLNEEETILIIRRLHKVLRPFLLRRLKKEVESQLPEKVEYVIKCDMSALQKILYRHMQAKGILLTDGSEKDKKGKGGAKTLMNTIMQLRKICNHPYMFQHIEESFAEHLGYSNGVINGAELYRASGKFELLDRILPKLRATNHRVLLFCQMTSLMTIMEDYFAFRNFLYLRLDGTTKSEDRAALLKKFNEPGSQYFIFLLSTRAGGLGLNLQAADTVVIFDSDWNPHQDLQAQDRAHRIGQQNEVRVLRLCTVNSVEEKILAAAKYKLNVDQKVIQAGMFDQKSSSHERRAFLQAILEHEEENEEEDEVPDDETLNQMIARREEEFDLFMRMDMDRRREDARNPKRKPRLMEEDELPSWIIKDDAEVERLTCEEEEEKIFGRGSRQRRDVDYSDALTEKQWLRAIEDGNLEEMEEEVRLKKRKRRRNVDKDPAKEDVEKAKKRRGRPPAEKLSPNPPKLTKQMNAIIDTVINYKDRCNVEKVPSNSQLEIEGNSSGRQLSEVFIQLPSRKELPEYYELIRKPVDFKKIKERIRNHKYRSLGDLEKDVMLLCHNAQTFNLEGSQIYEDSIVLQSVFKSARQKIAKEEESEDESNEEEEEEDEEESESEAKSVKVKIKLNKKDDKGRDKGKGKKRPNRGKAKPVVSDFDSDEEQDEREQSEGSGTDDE

What is called DC50 is the concentration at which degradation of the target reaches its halfway point. Take `CC(C)C(C(=O)N1C[C@H](O)C[C@H]1C(=O)N[C@@H](C)c1ccc(C#N)cc1)c1cc(N2CCC(CN3CCC(O[C@H]4C[C@H](Oc5cc(N6C7CCC6CN(c6cc(-c8ccccc8O)nnc6N)C7)ccn5)C4)CC3)CC2)no1` (stereo partly drawn) [compound 639, (2S,4R)-1-((2S)-2-(3-(4-((4-((1r,3r)-3-((4-(3-(3-amino-6-(2-hydroxyphenyl)pyridazin-4-yl)-3,8-diazabicyclo[3.2.1]octan-8-yl)pyridin-2-yl)oxy)cyclobutoxy)piperidin-1-yl)methyl)piperidin-1-yl)isoxazol-5-yl)-3-methylbutanoyl)-N-((S)-1-(4-cyanophenyl)ethyl)-4-hydroxypyrrolidine-2-carboxamide]: under setting [1], the DC50 was greater than 0.03 µM. Usually Dmax stands for the greatest extent of degradation seen. Consider `COCC[C@@H](NC(=O)[C@@H]1C[C@@H](O)CN1C(=O)[C@@H](c1cc(N2CCC(CN3CCC(O[C@H]4C[C@H](Oc5cc(N6C7CCC6CN(c6cc(-c8ccccc8O)nnc6N)C7)ccn5)C4)CC3)CC2)no1)C(C)C)c1ccc(-c2scnc2C)cc1` [compound 669, (2S,4R)-1-((2R)-2-(3-(4-((4-((1r,3r)-3-((4-(3-(3-amino-6-(2-hydroxyphenyl)pyridazin-4-yl)-3,8-diazabicyclo[3.2.1]octan-8-yl)pyridin-2-yl)oxy)cyclobutoxy)piperidin-1-yl)methyl)piperidin-1-yl)isoxazol-5-yl)-3-methylbutanoyl)-4-hydroxy-N-((R)-3-methoxy-1-(4-(4-methylthiazol-5-yl)phenyl)propyl)pyrrolidine-2-carboxamide], for which the DC50 under setting [1] was 0.01 to 0.03 µM. In addition, the Dmax (BRM degradation, SW1573 cells, read-out: Dmax (% degraded)) was in the range of 50 to 75%.

With `COc1nc(-c2scnc2C)c(F)cc1[C@H](C)NC(=O)[C@@H]1C[C@@H](O)CN1C(=O)[C@H](c1cc(OCCN2CCC(O[C@H]3C[C@H](Oc4cc(N5C6CCC5CN(c5cc(-c7ccccc7O)nnc5N)C6)ccn4)C3)CC2)no1)C(C)C` [compound 561, (2S,4R)-1-((2S)-2-(3-(2-(4-((1r,3S)-3-((4-(3-(3-amino-6-(2-hydroxyphenyl)pyridazin-4-yl)-3,8-diazabicyclo[3.2.1]octan-8-yl)pyridin-2-yl)oxy)cyclobutoxy)piperidin-1-yl)ethoxy)isoxazol-5-yl)-3-methylbutanoyl)-N-((S)-1-(5-fluoro-2-methoxy-6-(4-methylthiazol-5-yl)pyridin-3-yl)ethyl)-4-hydroxypyrrolidine-2-carboxamide], the 50% degradation concentration (DC50) under setting [2] is greater than 0.03 µM.

Regarding `Cc1ncsc1-c1ccc(CNC(=O)[C@@H]2C[C@@H](O)CN2C(=O)[C@@H](c2cc(OCCN3CCN(CCOCCn4cc(-c5cc(-c6ccccc6O)nnc5N)cn4)CC3)no2)C(C)C)cc1` [compound 124, (2S,4R)-1-((R)-2-(3-(2-(4-(2-(2-(4-(3-amino-6-(2-hydroxyphenyl)pyridazin-4-yl)-1H-pyrazol-1-yl)ethoxy)ethyl)piperazin-1-yl)ethoxy)isoxazol-5-yl)-3-methylbutanoyl)-4-hydroxy-N-(4-(4-methylthiazol-5-yl)benzyl)pyrrolidine-2-carboxamide], the DC50 under setting [1] was greater than 0.03 µM. Moreover, under setting [3], the Dmax is greater than 75%. Take `Cc1ncsc1-c1ccc([C@H](C)NC(=O)[C@@H]2C[C@@H](O)CN2C(=O)[C@@H](c2cc(N3CCC(CC4CCN(C[C@H]5C[C@H](Oc6cc(N7C8CCC7CN(c7cc(-c9ccccc9O)nnc7N)C8)ccn6)C5)CC4)CC3)no2)C(C)C)cc1` [compound 473, (2S,4R)-1-((2R)-2-(3-(4-((1-(((1r,3r)-3-((4-(3-(3-amino-6-(2-hydroxyphenyl)pyridazin-4-yl)-3,8-diazabicyclo[3.2.1]octan-8-yl)pyridin-2-yl)oxy)cyclobutyl)methyl)piperidin-4-yl)methyl)piperidin-1-yl)isoxazol-5-yl)-3-methylbutanoyl)-4-hydroxy-N-((S)-1-(4-(4-methylthiazol-5-yl)phenyl)ethyl)pyrrolidine-2-carboxamide]: under setting [4], the Dmax was greater than 75%. The DC50 under setting [5] is less than 0.0025 µM. Regarding `Cc1ncsc1-c1ccc([C@H](C)NC(=O)[C@@H]2C[C@@H](O)CN2C(=O)[C@H](c2cc(OCCCOc3cc(N4C5CCC4CN(c4cc(-c6ccccc6O)nnc4N)C5)ccn3)no2)C(C)C)cc1` [compound 613, (2S,4R)-1-((2S)-2-(3-(3-((4-(3-(3-amino-6-(2-hydroxyphenyl)pyridazin-4-yl)-3,8-diazabicyclo[3.2.1]octan-8-yl)pyridin-2-yl)oxy)propoxy)isoxazol-5-yl)-3-methylbutanoyl)-4-hydroxy-N-((S)-1-(4-(4-methylthiazol-5-yl)phenyl)ethyl)pyrrolidine-2-carboxamide], under setting [2], the DC50 was greater than 0.03 µM.

Regarding `Cc1ncsc1-c1ccc([C@H](C)NC(=O)[C@@H]2C[C@@H](O)CN2C(=O)[C@H](c2cc(N3CCN(CCN4CCC(O[C@H]5C[C@H](Oc6cc(N7C8CCC7CN(c7cc(-c9ccccc9O)nnc7N)C8)ccn6)C5)CC4)CC3)no2)C(C)C)cc1` [compound 195, (2S,4R)-1-((2S)-2-(3-(4-(2-(4-((1r,3r)-3-((4-(3-(3-amino-6-(2-hydroxyphenyl)pyridazin-4-yl)-3,8-diazabicyclo[3.2.1]octan-8-yl)pyridin-2-yl)oxy)cyclobutoxy)piperidin-1-yl)ethyl)piperazin-1-yl)isoxazol-5-yl)-3-methylbutanoyl)-4-hydroxy-N-((S)-1-(4-(4-methylthiazol-5-yl)phenyl)ethyl)pyrrolidine-2-carboxamide], the DC50 under setting [1] is greater than 0.03 µM. Also, the Dmax (BRM degradation, SW1573 cells, tested at the top concentration of between 0.3 and 10 μM, read-out: Dmax (%) (% degraded)) was greater than 75%. Consider `Cc1ncsc1-c1ccc([C@H](C)NC(=O)[C@@H]2C[C@@H](O)CN2C(=O)[C@H](c2cc(OCC[C@@H]3CCN(C[C@H]4C[C@H](Oc5cc(N6C7CCC6CN(c6cc(-c8ccccc8O)nnc6N)C7)ccn5)C4)[C@H](C)[C@@H]3C)no2)C(C)C)cc1` (single isomer, unassigned) [compound 583], for which the DC50 under setting [2] was greater than 0.03 µM. For the compound `Cc1ncsc1-c1ccc([C@H](C)NC(=O)[C@@H]2C[C@@H](O)CN2C(=O)[C@@H](c2cc(OCCOCCOc3cc(N4C5CCC4CN(c4cc(-c6ccccc6O)nnc4N)C5)ccn3)no2)C(C)C)cc1` [compound 357, (2S,4R)-1-((2R)-2-(3-(2-(2-((4-(3-(3-amino-6-(2-hydroxyphenyl)pyridazin-4-yl)-3,8-diazabicyclo[3.2.1]octan-8-yl)pyridin-2-yl)oxy)ethoxy)ethoxy)isoxazol-5-yl)-3-methylbutanoyl)-4-hydroxy-N-((S)-1-(4-(4-methylthiazol-5-yl)phenyl)ethyl)pyrrolidine-2-carboxamide], under setting [4], the Dmax was greater than 75%. Also, the DC50 under setting [5] is less than 0.0025 µM. For `COc1nc(-c2scnc2C)c(F)cc1[C@H](C)NC(=O)[C@@H]1C[C@@H](O)CN1C(=O)[C@@H](c1cc(OCCN2CCC(O[C@H]3C[C@H](Oc4cc(N5C6CCC5CN(c5cc(-c7ccccc7O)nnc5N)C6)ccn4)C3)CC2)no1)C(C)C` [compound 562, (2S,4R)-1-((2R)-2-(3-(2-(4-((1r,3R)-3-((4-(3-(3-amino-6-(2-hydroxyphenyl)pyridazin-4-yl)-3,8-diazabicyclo[3.2.1]octan-8-yl)pyridin-2-yl)oxy)cyclobutoxy)piperidin-1-yl)ethoxy)isoxazol-5-yl)-3-methylbutanoyl)-N-((S)-1-(5-fluoro-2-methoxy-6-(4-methylthiazol-5-yl)pyridin-3-yl)ethyl)-4-hydroxypyrrolidine-2-carboxamide], the Dmax (BRM degradation, SW1573 cells, Table 2D, read-out: **Dmax (%) (% degraded)) was greater than 75%. The DC50 under setting [2] is less than 0.0025 µM. `Cc1ncsc1-c1ccc([C@H](C)NC(=O)[C@@H]2C[C@@H](O)CN2C(=O)[C@H](c2cc(OCCC3CCN(C(=O)[C@H]4C[C@@H](CN5CCC([C@@H](C)n6cc(-c7cc(-c8ccccc8O)nnc7N)cn6)CC5)C4)CC3)no2)C(C)C)cc1` [compound 451, (2S,4R)-1-((S)-2-(3-(2-(1-((1S,3R)-3-((4-((R)-1-(4-(3-amino-6-(2-hydroxyphenyl)pyridazin-4-yl)-1 H-pyrazol-1-yl)ethyl)piperidin-1-yl)methyl)cyclobutane-1-carbonyl)piperidin-4-yl)ethoxy)isoxazol-5-yl)-3-methylbutanoyl)-4-hydroxy-N-((S)-1-(4-(4-methylthiazol-5-yl)phenyl)ethyl)pyrrolidine-2-carboxamide]: the Dmax under setting [4] was greater than 75%. The DC50 under setting [5] was less than 0.0025 µM. Take `Cc1ncsc1-c1ccc([C@H](C)NC(=O)[C@@H]2C[C@@H](O)CN2C(=O)[C@@H](c2onc(OCCN3CCN(CCOc4cc(N5C6CCC5CN(c5cc(-c7ccccc7O)nnc5N)C6)ccn4)CC3)c2Cl)C(C)C)cc1` [compound 55, (2S,4R)-1-((2R)-2-(3-(2-(4-(2-((4-(3-(3-amino-6-(2-hydroxyphenyl)pyridazin-4-yl)-3,8-diazabicyclo[3.2.1]octan-8-yl)pyridin-2-yl)oxy)ethyl)piperazin-1-yl)ethoxy)-4-chloroisoxazol-5-yl)-3-methylbutanoyl)-4-hydroxy-N-((S)-1-(4-(4-methylthiazol-5-yl)phenyl)ethyl)pyrrolidine-2-carboxamide]: the DC50 under setting [1] is less than 0.0025 µM. In addition, the greatest degradation seen (Dmax) under setting [3] was greater than 75%. Consider `CC(C)[C@@H](C(=O)N1C[C@H](O)C[C@H]1C(=O)N[C@@H](C)c1ccc(-c2scnc2N)cc1)c1cc(OCCN2CCC(O[C@H]3C[C@H](Oc4cc(N5C6CCC5CN(c5cc(-c7ccccc7O)nnc5N)C6)ccn4)C3)CC2)no1` [compound 416, (2S,4R)-1-((2R)-2-(3-(2-(4-((1r,3R)-3-((4-(3-(3-amino-6-(2-hydroxyphenyl)pyridazin-4-yl)-3,8-diazabicyclo[3.2.1]octan-8-yl)pyridin-2-yl)oxy)cyclobutoxy)piperidin-1-yl)ethoxy)isoxazol-5-yl)-3-methylbutanoyl)-N-((S)-1-(4-(4-aminothiazol-5-yl)phenyl)ethyl)-4-hydroxypyrrolidine-2-carboxamide], for which the Dmax under setting [4] was greater than 75%. The DC50 (degradation of BRM, read-out: BRM DC50) was less than 0.0025 µM.

(Values after patent US12539292B2, “BRM targeting compounds and associated methods of use” (Arvinas Operations, Inc., priority 2018, dated 2026).)
